Results on two compounds are retold here after US7271168B2, “Piperazine derivatives having SST1 antagonistic activity” (Novartis AG, priority 2001, dated 2007).

In test [1] the target is T1, Somatostatin sst1 receptors (Homo sapiens, UniProt P30872). Nature of the test: somatostatin receptor affinity (pKd), human. It is filed as binding. The text has this: (§1) The following pKd values have been found:
Test [2] has as its target somatostatin receptors (sst1) (Mus musculus, UniProt P30873). Nature of the test: somatostatin receptor affinity (pKd), mouse. It is filed as binding.
Source text: as §1

For test [3], the target named is somatostatin receptors (sst1) (Rattus norvegicus, UniProt P28646). Nature of the test: somatostatin receptor affinity (pKd), rat. It is filed as binding.
somatostatin receptors (sst1) (Rattus norvegicus, UniProt P28646), sequence (P28646 whole entry): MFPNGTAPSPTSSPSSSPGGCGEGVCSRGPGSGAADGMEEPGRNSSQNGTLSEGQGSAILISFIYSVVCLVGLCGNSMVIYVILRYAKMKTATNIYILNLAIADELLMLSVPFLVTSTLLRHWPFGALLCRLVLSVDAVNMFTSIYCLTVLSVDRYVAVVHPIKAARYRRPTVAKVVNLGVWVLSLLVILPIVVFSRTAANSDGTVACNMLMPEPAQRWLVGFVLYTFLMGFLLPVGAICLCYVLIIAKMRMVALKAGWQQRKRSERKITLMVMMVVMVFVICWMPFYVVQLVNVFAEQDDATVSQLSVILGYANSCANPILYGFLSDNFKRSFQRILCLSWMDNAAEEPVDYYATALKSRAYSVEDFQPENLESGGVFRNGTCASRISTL
Source text: as §1

The subject of another test is intruder rat. Put plainly: intruder test (intruder rat towards resident rat). It is filed as in vivo.
Another test concerns mice. Put plainly: social recognition test. Type of test: in vivo. Particulars: social recognition test in mice. The method, then: Moreover when given at doses of about 0.03 to 3 mg/kg p.o. to rodents, the agents of the invention counteract electroshock-induced amnesia, increase retention performance in a passive avoidance paradigm (Mondadori et. al., Pharmacology Communications 1992, 2: 93-97) and improve social recognition (Mondadori et al., Behavioural Brain Research 1996, 77: 227-229). The compounds are therefore indicated for the treatment of cognitive disturbances and learning/memory disorders.

The target in test [4] is T1, Somatostatin sst1 receptors.

SMILES strings stand for the structures. pKd: −log10 of the molar value. Where two headings read alike, the source gives them in different places.

T1 sequence (P30872 whole entry): as the sequence (P28646 whole entry) above, with P8S, T11S, S16P, G20S, V25G, C26G, S32A, S45A, A385T, S389T counted along it
somatostatin receptors (sst1) (Mus musculus, UniProt P30873), sequence (P30873 whole entry): as the sequence (P28646 whole entry) above, with P8S, T11S, S16P, G20S, V25A, S45A counted along it

One may read the pKd as −log10 of the Kd, conventionally taken in molar units. High values mean a low Kd, low ones a high Kd. Consider `CN(CCC(=O)N1CCN(c2ccc(F)c(F)c2)CC1)CCC1c2ccccc2Oc2ccccc21` [Compound A, 1-[4-(3,4-difluoro-phenyl)-piperazin-1-yl]-3-{methyl-[2-(9H-xanthen-9-yl)-ethyl]-amino}-propan-1-one], for which the pKd in test [1] was 8.30 to 8.80; in test [2], 8.00 to 8.40; in test [3], 9.10. Further, in the test with intruder rat, the “duration of social contacts of the intruder rat towards the resident rat” value is recorded as “significantly increase”. The learning/memory performance result with mice is “specific enhancing effect”.

Regarding `CN(CCC(=O)N1CCN(c2ccc(F)c(F)c2)CC1)CCC1c2ccccc2-c2ccccc21` [Compound B, 1-[4-(3,4-difluoro-phenyl)-piperazin-1-yl]-3-{[2-(9H-fluoren-9-yl)-ethyl]-methyl-amino}-propan-1-one], the pKd is 8.20 to 8.60 in test [1] and 8.30 to 8.60 in test [2]. Besides, the Kd in test [3] (rat, read-out: pKd (converted)) is 0.501 nM. Further, in the test with intruder rat, the “duration of social contacts of the intruder rat towards the resident rat” value is reported as “significantly increase”. The learning/memory performance entry with mice was “specific enhancing effect”. Moreover, the “selectivity among somatostatin receptors” value in test [4] was “sst1 selective”.
